Measurements: patent publication US20260174786A1, “A NITROGEN-CONTAINING SPIROCYCLIC COMPOUND, PHARMACEUTICAL COMPOSITION AND USE THEREOF” (Prime Gene Therapeutics Co., Ltd., priority 2022, published 2026)

Assays:
hTRPV3 = molecular target: T1, hTRPV3 (Homo sapiens, UniProt Q8NET8); assay: Whole cell patch clamp inhibition rate test on HEK-293 cells instantaneously expressing TRPV3; assay type: cell-based; conditions: HEK293; hTRPV3, single concentration 0.3 μM
T1 construct: expressed in transfected cells; host or cells: HEK-293
T1 sequence (Q8NET8 1-790): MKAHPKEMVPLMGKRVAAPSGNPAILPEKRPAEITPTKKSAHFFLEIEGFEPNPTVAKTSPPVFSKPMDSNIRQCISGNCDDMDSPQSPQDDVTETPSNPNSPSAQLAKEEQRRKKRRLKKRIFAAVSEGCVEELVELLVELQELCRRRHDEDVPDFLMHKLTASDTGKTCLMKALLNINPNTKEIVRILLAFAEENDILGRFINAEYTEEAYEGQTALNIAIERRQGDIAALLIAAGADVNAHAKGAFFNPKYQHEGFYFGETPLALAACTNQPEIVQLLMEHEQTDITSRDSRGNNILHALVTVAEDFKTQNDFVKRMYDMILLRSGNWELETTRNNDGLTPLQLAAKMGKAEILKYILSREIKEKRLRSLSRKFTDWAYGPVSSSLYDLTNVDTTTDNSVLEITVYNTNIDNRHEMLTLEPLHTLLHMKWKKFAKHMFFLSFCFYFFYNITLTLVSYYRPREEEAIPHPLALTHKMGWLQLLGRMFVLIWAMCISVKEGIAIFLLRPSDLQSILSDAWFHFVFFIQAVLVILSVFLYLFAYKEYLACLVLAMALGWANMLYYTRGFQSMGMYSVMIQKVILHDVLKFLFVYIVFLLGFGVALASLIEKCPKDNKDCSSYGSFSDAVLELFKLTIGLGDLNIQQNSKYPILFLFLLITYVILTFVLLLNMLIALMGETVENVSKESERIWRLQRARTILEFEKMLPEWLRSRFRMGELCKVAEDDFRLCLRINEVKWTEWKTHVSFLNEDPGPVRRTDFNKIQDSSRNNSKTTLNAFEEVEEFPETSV
In short: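 HEK-293 cells transiently transfected with TRPV3, recorded next-but-one day by whole-cell patch clamp at room temperature: holding −80 mV, ramp −100 to 100 mV over 100 ms every 5 s, peak current monitored. Ascending concentrations perfused, 5 min each; each cell its own control, at least two cells per concentration.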

[1] = Stability assessment of compounds at room temperature under 92.5% humidity (LC-MS); assay type: physicochemical; conditions: 92.5% humidity (open), after 5 days
Experimental: Taking the compound of Example 21 and KM-001-E1 in WO2021154966A1 as examples, the stability thereof was compared:
Compound of Example 21 and KM-001-E1 were accurately weighed and placed in penicillin bottles, and placed at room temperature under 92.5% humidity (open) conditions for 5-10 days to investigate the stability of the compounds.
• instrument: Thermo U3000-ISQEC • column: Xtimate UHPLC C18 1.8 μm 4.6*50 mm • Column temperature: 35° C. • wavelength: 210 nm, 254 nm • mobile phase A: 0.05% formic acid aqueous solution; mobile phase B: 0.05% formic acid acetonitrile; gradient: 30% B 0-1.2 min, 95% B 1.2-3.3 min, 30% B 3.3-4.5 min;
Analyzing the degradation impurities of each compound under 92.5% humidity conditions using LC-MS: The main impurities in Example 21 had m/z 427.17, with a retention time of 2.55 minutes. After being left for 10 days, the peak area proportion was only 0.3%; The main impurities in KM-001-E1 has m/z=431.14 and m/z=415.16, with retention times of 2.31 minutes and 2.64 minutes, respectively. […] Based on LC-MS and NMR data analysis, it can be inferred that the main impurities produced in Example 21 are ketones, while the main impurities produced in KM-001-E1 are aldehydes and carboxylic acids.

Row | inhibition at 0.3 µM (hTRPV3) | peak area proportion of main impurity (m/z=415.16) [1] | peak area proportion of main impurity (m/z=431.14) [1] | Compound
1 | 70 to 100% | – | – | O=C(c1ccc(F)cn1)N1CCC2(CC(O)c3cc(-c4ccc(F)cc4C4CC4)ccc32)C1 (stereo not shown) [Example 163, (5-(2-cyclopropyl-4-fluorophenyl)-3-hydroxy-2,3-dihydrospiro[indene-1,3′-pyrrolidine]-1′-yl)(5-fluoropyridin-2-yl) ketone]
2 | 50 to 70% | – | – | CC(C)(C#N)c1ccccc1-c1ccc2c(c1)C(O)CC21CCN(C(=O)c2ccc(F)cn2)C1 (stereo not shown) [Example 164, 2-(2-(1′-(5-fluoropyridoyl)-3-hydroxy-2,3-dihydrospiro[indene-1,3′-pyrrolidine]-5-yl)phenyl)-2-methyl propionitrile]
3 | – | 2.43% | 2.48% | O=C(c1ccc(F)cn1)N1CC[C@H](c2ccc(-c3ccccc3C3CC3)cc2CO)C1 [KM-001-E1]
